Data: publication PMC6014988, “Precision therapeutic targeting of human cancer cell motility” (Nature Communications, 2018)
“Also recorded” adds a separate entry of the source.

Legend:
[1] = test system: p38 MAPK and HSP27 phosphorylation; assay: Phosphorylation of p38 MAPK and HSP27 in PC3-M cells, Western blot; format: cell-based, human; settings: 50 µM, 24 hours, then TGFβ
Experimental: (§1) Supplementary Figure 9. […] (a) Depiction of […]
(§2) established MKK4 pathway regulating human PCa cell metastasis. […]
(§3) to MKK4, as measured by fluorescence-based thermal shift assay. Values are the mean±SD (of N=2 replicates) increase in melting temperature (ΔTm) of purified recombinant MKK4 induced by the indicated concentrations of KBU2046 or genistein. […]
(§4) in an in vitro kinase assay. The indicated concentrations of KBU2046 were added to recombinant activated MKK4, and its ability to phosphorylate kinase dead p38α MAPK (K53A) was measured by Western blot for total (p38 MAPK) and phosphorylated (pp38 MAPK) forms of […]
HSP27 in cells. PC3-M cells were pre-treated for 24 hours with 50 µM KBU2046 or genistein, as indicated, then with TGFβ, and Western blot performed. All findings are from a single experiment, with similar findings in identical separate experiments, repeated at least once. […]

MKK4 = biological target: T1, MKK4 (Homo sapiens, UniProt P45985, S257E/T261E); assay: Fluorescence-based thermal shift assay, MKK4; format: binding
T1 construct: made in house; host or cells: KRX E. coli
Experimental: Fluorescent thermal shift, isothermal titration calorimetry, and biolayer interferometry assays[46] were all performed as described by us using MEK4EE (37-399, S257E, T261E) cloned into pMCSG7 and KRX Competent E. coli cells (Promega Inc.) and above denoted full-length HSP90B and CDC37 vectors and Rosetta BL-21 and BL-21 DE-3 competent E. coli cells, respectively. DARTS assays were conducted as described, using equimolar amounts of CDC37 and HSP90β, thermolysin digestion, and silver stain visualization (ProteoSilver Silver Stain Kit, Sigma-Aldrich).
as §1, §2, §3, §4
HSP27 in cells. PC3-M cells were pre-treated for 24 hours with 50 µM KBU2046 or genistein, as indicated, then with TGFβ, and Western blot performed. […]

HSP90β = biological target: T2, HSP90β (Homo sapiens, UniProt P08238+Q16543); assay: In vitro kinase assay, SGK3 phosphorylation of HSP90β; format: biochemical
T2 construct: made in house; host or cells: E. coli (HSP90β, CDC37); SGK3 purchased from Thermo Scientific #PV3859

[2] = Three-day MTT cell growth inhibition assay, 1532NPTX; format: cell-based, human; settings: human, 1532NPTX cells
1532NPTX = assay: as above; format: cell-based, human; settings: Homo sapiens, 72 h, 3 days
[3] = test system: phosphoproteins in PC3 cells; assay: PhosphoScan LC-MS/MS of BL4176 immunoprecipitates; format: cell-based, human
Experimental: The Kinoview™ and PhosphoScan™ assays were performed by Cell Signaling Technology Inc.
Supplementary Figure 12. Identification of the 83 kDa band using a proteomic approach.
(a) PC3 cells were pre-treated with 10 µM KBU2046 or vehicle (control) for 3 days, then treated with TGFβ for 1 hr, and the resultant cell lysates were subjected to immunoprecipitation with BL4176 (Kinoview® phospho-motif antibody). Proteins bound in this manner were analyzed in replicates of N=2 using PhosphoScan™ technology. This identified 483 unique phosphopeptide assignments from 306 parent proteins, with a mean false discovery rate of 0.30% (estimated via Sorcerer search of composite human database of forward and reverse protein entries). We only considered proteins where the average values for treatment and control were each 3 times that of background. Further, we required each of the N=2 replicate values (used to calculate the average) to be >/= 2.5 fold above background. We were only interested in situations in which protein decreased with KBU2046, and we required that decrease to be >/= 2.5 fold, compared to control.
According to these parameters, there were 19 phospho-proteins whose expression decreased in cells treated with KBU2046, compared to control. These are depicted above. Recognizing that each of these proteins may have value, we elected to remain focused on the 83 kDa protein, and therefore only considered proteins +/- 5 kDa of this value. Only heat shock protein 90 (HSP90)β

1532CPTX = assay: Three-day MTT cell growth inhibition assay, 1532CPTX; format: cell-based, human; settings: Homo sapiens, 72 h, 3 days
[4] = as above; format: cell-based, human; settings: human, 1532CPTX cells
estrogen receptor (ER) = assay: Induction of estrogen-responsive genes in MCF-7 cells; format: cell-based, human
Experimental: RNA was isolated and qRT-PCR was performed as described by us[43], analyzed by the 2^−ΔΔCt method, using primer/probes sets (ABI), HSP90α (Hs00743767_sH), HSP90β (Hs00427665_g1), trefoil factor 1 (TFF1; Hs00907239_m1), cathepsin D (CTSD; Hs00157205_m1), progesterone receptor (PGR; Hs01556702_m1), and GAPDH (Hs99999905_m1). Assays were repeated, each in replicates of N = 2. […]
(§5) panel. KBU2046 was submitted to the Developmental Therapeutics Program (DTP) of the US National Cancer Institute (NCI), underwent initial screening across the NCI 60 cell line panel per DTP protocol 1, and the resultant COMPARE diagram is depicted above. Based upon its lack of […]
(§6) Supplementary Figure 3. […] Estrogen […]
(§7) receptor positive MCF-7 cells were cultured under hormone free conditions transfected pERE-Luc or empty control vector, along with constitutive active β-gal, grown under estrogen-free conditions, and pre-treated for 24 hours with nanomolar concentrations of estradiol, or with micromolar concentrations of genistein or KBU2046, as indicated. Luciferase activity was measured, normalized to that of β-gal, and values expressed as the percent of untreated vector control cells. Values are the mean±SD of a single experiment, with similar results seen in a separate repeat experiment, both in replicates of N=2.
(also on this page, place not known: luciferase/B-gal activity, % untreated vector control) […]

NCI-60 cell line panel = assay: NCI 60 cell line panel screening; format: cell-based, human; settings: initial screening per DTP protocol
Experimental: as §5, §6, §7
(also on this page, place not known: luciferase/B-gal activity, % untreated vector control)
(1 picture or pasted object on this page, not shown here)

T2 sequence (P08238 whole entry): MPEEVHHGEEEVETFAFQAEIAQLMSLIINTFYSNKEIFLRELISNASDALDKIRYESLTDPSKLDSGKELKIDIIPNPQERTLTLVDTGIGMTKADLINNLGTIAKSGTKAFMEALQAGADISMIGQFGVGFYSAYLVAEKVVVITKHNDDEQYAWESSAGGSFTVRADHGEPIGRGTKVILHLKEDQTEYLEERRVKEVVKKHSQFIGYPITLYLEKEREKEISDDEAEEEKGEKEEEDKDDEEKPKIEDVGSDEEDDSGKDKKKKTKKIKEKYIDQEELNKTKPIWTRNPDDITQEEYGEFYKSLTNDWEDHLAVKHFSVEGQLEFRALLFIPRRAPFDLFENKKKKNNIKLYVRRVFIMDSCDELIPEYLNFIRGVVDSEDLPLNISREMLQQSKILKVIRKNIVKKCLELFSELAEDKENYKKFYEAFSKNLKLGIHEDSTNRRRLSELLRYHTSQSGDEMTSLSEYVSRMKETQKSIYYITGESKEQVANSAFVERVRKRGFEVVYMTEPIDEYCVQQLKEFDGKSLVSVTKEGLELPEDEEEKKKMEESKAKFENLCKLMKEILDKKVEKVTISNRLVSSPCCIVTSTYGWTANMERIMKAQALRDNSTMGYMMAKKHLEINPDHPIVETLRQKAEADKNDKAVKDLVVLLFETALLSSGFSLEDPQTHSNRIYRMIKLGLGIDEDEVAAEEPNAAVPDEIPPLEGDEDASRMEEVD
T2 sequence (Q16543 whole entry): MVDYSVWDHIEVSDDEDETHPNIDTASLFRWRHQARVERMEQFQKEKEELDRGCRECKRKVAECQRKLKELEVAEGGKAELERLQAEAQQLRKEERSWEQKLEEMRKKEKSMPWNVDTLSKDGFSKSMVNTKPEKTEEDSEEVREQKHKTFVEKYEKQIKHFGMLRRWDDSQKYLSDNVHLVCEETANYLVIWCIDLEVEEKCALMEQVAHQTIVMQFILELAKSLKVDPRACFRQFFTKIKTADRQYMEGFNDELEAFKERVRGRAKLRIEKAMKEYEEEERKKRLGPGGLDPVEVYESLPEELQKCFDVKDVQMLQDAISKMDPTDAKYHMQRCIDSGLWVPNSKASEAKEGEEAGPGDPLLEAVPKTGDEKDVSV
T1 sequence (P45985 37-399 S257E/T261E): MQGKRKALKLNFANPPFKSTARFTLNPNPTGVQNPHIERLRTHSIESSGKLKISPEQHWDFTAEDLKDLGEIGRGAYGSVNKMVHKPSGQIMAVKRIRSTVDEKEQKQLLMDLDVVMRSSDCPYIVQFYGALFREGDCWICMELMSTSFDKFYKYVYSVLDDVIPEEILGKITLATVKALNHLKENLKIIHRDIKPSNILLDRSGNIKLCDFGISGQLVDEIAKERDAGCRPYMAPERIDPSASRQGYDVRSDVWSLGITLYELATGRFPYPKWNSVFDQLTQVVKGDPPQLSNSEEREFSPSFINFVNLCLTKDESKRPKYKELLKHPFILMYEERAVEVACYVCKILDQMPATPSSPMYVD

**Q.** What does the source list for `O=C1c2ccccc2OCC1c1ccc(F)cc1` (racemic) [KBU2046, (±)-3(4-fluorophenyl)chroman-4-one]?
**A.** downstream phosphorylation of p38 MAPK and HSP27 [1]: did not inhibit downstream phosphorylation; binding to MKK4 (MKK4): did not bind to MKK4; SGK3-mediated phosphorylation of HSP90β (HSP90β; HSP90β, CDC37, SGK3): phosphorylation was further increased; SGK3-mediated phosphorylation of HSP90β (HSP90β; with MAP3K6 added): decreases in the presence of KBU2046; viability at 3 days, 50 µM [2]: 95.3%; IC20 (1532NPTX): > 50 µM; IC50 (1532NPTX): > 50 µM; fold change, MFAP1 ([3]; AALDALNT*DDENDEEEYEAWK): -21.8 fold; fold change, UBL5 ([3]; CNT*DDTIGDLKK): -2.9 fold; fold change, PITSLRE ([3]; DLLS*DLQDIS*DSER): -3.3 fold; fold change, VAMP1 ([3]; DQKLS*ELDDR): -3.6 fold; fold change, PIMT ([3]; DRPHAS*GT*DGDES*EEDPPEHKPSK): -4.7 fold; fold change, PIMT ([3]; DRPHASGT*DGDES*EEDPPEHKPSK): -3.0 fold; fold change, HSP90B ([3]; EIS*DDEAEEEKGEKEEEDKDDEEKPK): -6.6 fold; fold change, FIP1L1 ([3]; ERDHS*PTPSVFNS*DEER): -2.9 fold; fold change, IWS1 ([3]; GHHVT*DSENDEPLNLNAS*DSESEELHR): -3.2 fold; fold change, NIN ([3]; HVLS*DLEDDEVR): -3.1 fold; fold change, PGRMC2 ([3]; LLKPGEEPS*EYT*DEEDTKDHNK, PC3, 10 µM 3 days, TGFβ 1 hr): -2.5 fold; fold change, LEO1 ([3]; MQNT*DDEERPQLS*DDER): -3.4 fold; fold change, NudC ([3]; NGSLDSPGKQDT*EEDEEEDEKDKGK): -2.5 fold; decrease in abundance of phosphorylated Ser226 on HSP90β ([3]; PC3 cells, KBU2046 then TGFβ): 6.6 fold; fold change, BAT2D1 ([3]; S*ES*SDFEVVPK): -2.7 fold; fold change, RBM5 ([3]; SEDGYHS*DGDYGEHDYR): -2.7 fold; fold change, CLASP2 ([3]; SRS*DIDVNAAAGAK): -2.4 fold; fold change, SSB ([3]; TKFAS*DDEHDEHDENGATGPVK): -4.5 fold; fold change, SEC62 ([3]; VGPGNHGTEGS*GGERHS*DTDS*DRR): -2.8 fold; fold change, SEC62 ([3]; VGPGNHGTEGSGGERHS*DT*DSDRR): -2.6 fold; IC20 (1532CPTX): > 50 µM; IC50 (1532CPTX): > 50 µM; viability at 3 days, 50 µM [4]: 99.4%; activation of estrogen-responsive genes (estrogen receptor (ER)): did not activate estrogen-responsive genes; also recorded: does not activate the estrogen receptor; toxicity to NCI-60 cells (NCI-60 cell line panel): not toxic
